In patent publication US20230104936A1, “TRPML MODULATORS” (Casma Therapeutics, Inc., priority 2019, published 2023):

System: TFEB
Assay: TFEB nuclear translocation assay, HeLa wt cells
Type: cell-based
Details: 2 hrs compound treatment, Table 1 does not say HeLa wt or TRPML1 KO
Summary of the method: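 HeLa wt or TRPML1 KO cells treated 2 hrs with compounds at 37° C, fixed in 4% PFA, immunostained with anti-TFEB plus Alexa 488 secondary and Hoechst. Imaged at ×20, four fields/well; read-out is nuclear/perinuclear-ring TFEB intensity ratio, reported as AC50.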

Compound	AC50 (Homo sapiens, HeLa, 2 h) [nM]	AC50 [nM]
CS(=O)(=O)c1ccc(S(=O)(=O)Nc2ccccc2N2CCC3(CC2)COCc2ccccc23)cc1 [Compound A-481, N-(2-{1,3-dihydrospiro[2-benzopyran-4,4′-piperidin]-1′-yl}phenyl)-4-methanesulfonylbenzene-1-sulfonamide]	≤ 2000	–
CN1CC2(CCN(c3c(NS(=O)(=O)c4ccc(S(=O)(=O)N(C)C)cc4)ccc4c3cnn4C)CC2)c2ccc(F)cc21 [Compound A-247, N4-(4-{6-fluoro-1-methyl-1,2-dihydrospiro[indole-3,4′-piperidin]-1′-yl}-1-methyl-1H-indazol-5-yl)-N1,N1-dimethylbenzene-1,4-disulfonamide]	≤ 2000	–
CC(c1cccc(F)c1N1CCC(CN2CC3CCC(C2)C3(F)F)CC1)S(=O)(=O)c1ccc(S(=O)(=O)N(C)C)cc1 (stereo not drawn) [Compound A-985, 4-(1-{2-[4-({8,8-difluoro-3-azabicyclo[3.2.1]octan-3-yl}methyl)piperidin-1-yl]-3-fluorophenyl}ethanesulfonyl)-N,N-dimethylbenzene-1-sulfonamide]	≤ 2000	–
O=S(=O)(Nc1ccccc1N1CCC(c2ccc(F)cc2F)CC1)c1ccc(C(F)F)cn1 [Compound A-137, 5-(difluoromethyl)-N-{2-[4-(2,4-difluorophenyl)piperidin-1-yl]phenyl}pyridine-2-sulfonamide]	2010 to 8000	–
CN(C)S(=O)(=O)c1ccc(S(=O)(=O)Nc2cccc(C(F)F)c2N2CCC3(CC2)COC(C)(C)C3)cc1 [Compound A-753, N4-[3-(difluoromethyl)-2-{3,3-dimethyl-2-oxa-8-azaspiro[4.5]decan-8-yl}phenyl]-N1,N1-dimethylbenzene-1,4-disulfonamide]	≤ 2000	–
Cc1ccc(S(=O)(=O)Nc2ccccc2N2CCC(c3ccc(Cl)cc3F)C2)cc1 (stereo not drawn) [Compound A-102, N-{2-[3-(4-chloro-2-fluorophenyl)pyrrolidin-1-yl]phenyl}-4-methylbenzene-1-sulfonamide]	2010 to 8000	–
COCC1(C)CCN(c2cc(F)ccc2NS(=O)(=O)c2ccc(S(=O)(=O)N(C)C)cc2)CC1 [Compound A-694, N4-{4-fluoro-2-[4-(methoxymethyl)-4-methylpiperidin-1-yl]phenyl}-N1,N1-dimethylbenzene-1,4-disulfonamide]	≤ 2000	–
CNC(=O)C1(c2ccc(F)cc2F)CCN(c2ccccc2NS(=O)(=O)c2ccc(S(=O)(=O)N(C)C)cc2)CC1 [Compound A-216, 4-(2,4-difluorophenyl)-1-{2-[4-(dimethylsulfamoyl)benzenesulfonamido]phenyl}-N-methylpiperidine-4-carboxamide]	≤ 2000	–
O=S(=O)(Nc1cc(Cl)ccc1N1CCN(c2ccc(Cl)cc2F)CC1)c1ccc2c(c1)CCC2 [Compound A-291, N-{5-chloro-2-[4-(4-chloro-2-fluorophenyl)piperazin-1-yl]phenyl}-2,3-dihydro-1H-indene-5-sulfonamide]	≤ 2000	–
CC(=O)N(C)C1(c2ccc(Cl)cc2F)CCN(c2ccccc2NS(=O)(=O)c2ccc(S(=O)(=O)N(C)C)cc2)CC1 [Compound A-172, N-[4-(4-chloro-2-fluorophenyl)-1-{2-[4-(dimethylsulfamoyl)benzenesulfonamido]phenyl}piperidin-4-yl]-N-methylacetamide]	2010 to 8000	–
CC(c1cccc(F)c1N1CCC2(CC1)COC(C)(C)C2)S(=O)(=O)c1ccc(S(=O)(=O)N(C)C)cc1 (stereo not drawn) [Compound A-752, 4-[1-(2-{3,3-dimethyl-2-oxa-8-azaspiro[4.5]decan-8-yl}-3-fluorophenyl)ethanesulfonyl]-N,N-dimethylbenzene-1-sulfonamide]	≤ 2000	–
Cc1cc(Cl)c(N2CCOCC2)c(NS(=O)(=O)c2ccc3c(c2)CCC3)c1 [Compound A-887, N-[3-chloro-5-methyl-2-(morpholin-4-yl)phenyl]-2,3-dihydro-1H-indene-5-sulfonamide]	≤ 2000	–
COCC1(C)CCN(c2ccccc2NS(=O)(=O)c2ccc(C3CC3(F)F)cc2)CC1 (stereo not drawn) [Compound A-650, 4-(2,2-difluorocyclopropyl)-N-{2-[4-(methoxymethyl)-4-methylpiperidin-1-yl]phenyl}benzene-1-sulfonamide]	≤ 2000	–
Cc1ccc(S(=N)(=O)Nc2ccccc2N2CCC(c3ccc(Cl)cc3F)CC2)cc1 (stereo not drawn) [Compound A-151, N-{2-[4-(4-chloro-2-fluorophenyl)piperidin-1-yl]phenyl}-4-methylbenzene-1-sulfonoimidamide]	2010 to 8000	–
CN(C)S(=O)(=O)c1ccc([S+]([O-])Cc2ccccc2N2CCC(c3ccc(Cl)cc3F)CC2)cc1 (stereo not drawn) [Compound A-190, 4-((2-(4-(4-chloro-2-fluorophenyl)piperidin-1-yl)benzyl)sulfinyl)-N,N-dimethylbenzenesulfonamide]	≤ 2000	–
CN(C)S(=O)(=O)c1ccc(S(=O)(=O)Nc2ccccc2N2CCC3(CCOC3)CC2)cc1 [Compound A-422, N1,N1-dimethyl-N4-(2-{2-oxa-8-azaspiro[4.5]decan-8-yl}phenyl)benzene-1,4-disulfonamide]	≤ 2000	–
CCC(C)(C)N1CCN(c2ccccc2NS(=O)(=O)c2ccc(S(=O)(=O)N(C)C)cc2)CC1 [Compound A-455, N1,N1-dimethyl-N4-{2-[4-(2-methylbutan-2-yl)piperazin-1-yl]phenyl}benzene-1,4-disulfonamide]	2010 to 8000	–
CN1Cc2ccccc2C2(CCN(c3ccccc3NS(=O)(=O)c3ccc(S(C)(=O)=O)cc3)CC2)C1 [Compound A-398, 4-methanesulfonyl-N-(2-{2-methyl-2,3-dihydro-1H-spiro[isoquinoline-4,4′-piperidin]-1′-yl}phenyl)benzene-1-sulfonamide; formic acid]	2010 to 8000	–
C[C@@H]1CN(CC2CCN(c3c(F)cccc3[C@H](C)S(=O)(=O)c3ccc(S(=O)(=O)N(C)C)cc3)CC2)C[C@H](C)O1 [Compound A-783, 4-[(1S)-1-[2-(4-{[(2R,6S)-2,6-dimethylmorpholin-4-yl]methyl}piperidin-1-yl)-3-fluorophenyl]ethanesulfonyl]-N,N-dimethylbenzene-1-sulfonamide]	≤ 2000	–
CN(C)S(=O)(=O)c1ccc(S(=O)(=O)Nc2ccccc2N2CCN(c3ccn(C(C)(C)C)n3)CC2)cc1 [Compound A-414, N4-{2-[4-(1-tert-butyl-1H-pyrazol-3-yl)piperazin-1-yl]phenyl}-N1,N1-dimethylbenzene-1,4-disulfonamide]	≤ 2000	–
CS(=O)(=O)c1ccc(S(=O)(=O)Nc2ccccc2N2CCC3(CC2)CN(C(=O)OC2CCOC2)c2cc(F)ccc23)cc1 (stereo not drawn) [Compound A-469, oxolan-3-yl 6-fluoro-1′-[2-(4-methanesulfonylbenzenesulfonamido)phenyl]-1,2-dihydrospiro[indole-3,4′-piperidine]-1-carboxylate]	≤ 2000	–
CC(c1cccc(F)c1N1CCC(CN2C[C@H]3C[C@@H](C2)O3)CC1)S(=O)(=O)c1ccc(S(=O)(=O)N(C)C)cc1 (single isomer, unassigned) [Compound A-849]	–	2010 to 8000
C[C@@H](c1cccc(F)c1N1CCC(C(F)(F)F)CC1)S(=O)(=O)c1ccc(S(=N)(=O)N(C)C)cc1 (single isomer, unassigned) [Compound A-932]	≤ 2000	–
COc1ccc(S(=O)(=O)Nc2ccccc2N2CCC(c3ccc(Cl)cc3F)CC2)cc1 [Compound A-99, N-{2-[4-(4-chloro-2-fluorophenyl)piperidin-1-yl]phenyl}-4-methoxybenzene-1-sulfonamide]	≤ 2000	–
